Data: patent US6525040B1, “Cyclic organoselenium compounds, their preparation and their uses” (Oxis Isle of Man, Limited, priority 1996, dated 2003)

Tests used:
[1] = test system: TNF-α-induced interleukin 8 release by endothelial cells (HUVEC); assay: Inhibition of the TNF-α-induced release of interleukin 8 by endothelial cells (ELISA); format: cell-based; conditions: compound 10 μM, TNF-α 1 ng/ml, 3 h 30 min incubation, human endothelial cells, read-out: Inhibition of TNF-α-induced IL-8 production in the culture medium
Procedure: Human endothelial cells are grown at 37° C. in multi-well plates under a water-saturated atmosphere constituted of a gaseous mixture of 95% air and 5% CO2. Their culture medium is constituted by a medium M 199 pH=7.4 containing 20% foetal calf serum, 2 mM L-glutamine, 100 U/ml penicillin, 100 μg/ml streptomycin and 1% by volume of a medium supplement containing heparin and a growth factor for these cells.
When the cells are close to confluence, they are incubated for one hour in the presence or in the absence of one of the following compounds: BXT-51097 or BXT-51103. Each one of these compounds is incorporated at 10 μM in the culture medium containing 2% foetal calf serum, everything else being equal. After removal of the culture medium, the cells are incubated in the presence or in the absence (control) of TNF-α, at 1 ng/ml, in the same culture medium as before. In the case of cells pre-treated with a compound of the invention, the medium further contains the same compound at 10 μM. After three hours and thirty minutes of incubation, the interleukin 8 (IL-8) released into the culture medium is determined by ELISA.

[2] = test system: TNF-α-induced P-selectin expression by endothelial cells (HUVEC); assay: Inhibition of TNF-α-induced P-selectin expression by endothelial cells (cell ELISA); format: cell-based; conditions: compound 10 μM; TNF-α 1 ng/ml; 3 h 30 min incubation; human endothelial cells
Procedure: (§1) Human endothelial cells are grown under the same conditions as those described in Example 6.
(§2) When the cells are close to confluence, they are incubated for one hour in the presence or in the absence of one of the following compounds: BXT-51097 or BXT-51103. Each one of these compounds is incorporated at 10 μM in the culture medium containing 2% foetal calf serum, everything else being equal. After the removal of the culture medium, the cells are incubated in the presence or in the absence (control) of TNF-α, at 1 ng/ml, in the same culture medium as before. In the case of cells pre-treated with a compound, the medium further contains the same compound at 10 μM. After three hours and thirty minutes of incubation, the cells are washed with PBS buffer and they are fixed with 2% formaldehyde in the same buffer. The P- and E-selectin expressions on the cells are then measured by an ELISA determination by successively incubating the cells in the presence of a mouse monoclonal antibody, anti-P-selectin and anti-E-selectin respectively, and a rabbit anti-mouse anti-antibody labelled with alkaline phosphatase. The quantification is carried out upon the addition of para-nitrophenyl phosphate whose hydrolysis is followed at 405 nm.

[3] = test system: TNF-α-induced E-selectin expression by endothelial cells (HUVEC); assay: Inhibition of TNF-α-induced E-selectin expression by endothelial cells (cell ELISA); format: cell-based; conditions: compound 10 μM; TNF-α 1 ng/ml; 3 h 30 min incubation; human endothelial cells
Procedure: as §1, §2

[4] = Glutathione peroxidase activity (NADPH-coupled, GSH/glutathione disulphide reductase); format: biochemical; conditions: compound 20 μM, pH = 7.3, 37° C., [GSH] = 2 mM; for Glutathione peroxidase activity, H2O2: substrate H2O2; for Glutathione peroxidase activity, t-BuOOH: substrate t-BuOOH
Procedure: The glutathione peroxidase activity is determined by using a 50 mM HEPES buffer, pH=7.3 (at 37° C.), containing 0.2 mM DTPA, 0.144 mM NADPH, 2.2 mM reduced glutathione (GSH) and 1.1 U/ml glutathione disulphide reductase. This buffer further contains 110 U/ml catalase when hydrogen peroxide is not used as substrate.
To 1.5 ml of the buffer described above, are added 100 μl of an ethanolic stock solution of the compound tested or 100 μl of absolute ethanol (blank). Each compound is tested at a final concentration of 20 μM. The reaction medium is equilibrated for 2 minutes at 37° C. Then 50 μl of 6.6 mM tert-butyl hydroperoxide (t-BuOOH) in ultrapure water, or 3.3 mM hydrogen peroxide (H2O2) in ultrapure water are added. The glutathione peroxidase activity is determined at 37° C. by measuring the decrease of absorbance at 340 nm for 5 minutes. Said activity or initial enzymatic rate is proportional to the slope of the variation of absorbance with time.
The catalytic activity of oxygen reduction of the compounds tested corresponds to the rate of consum.p.ion of NADPH in the absence of hydroperoxide.
They are expressed in nmoles of hydroperoxide reduced per minute.

[5] = even in the presence of an excess of glutathione GSH; cited from earlier work

| Compound | inhibition at 10 µM [1] [%] | Inhibition of TNF-α-induced P-selectin expression [2] | Inhibition of TNF-α-induced E-selectin expression [3] | Glutathione peroxidase activity, H2O2 [4] | Glutathione peroxidase activity, t-BuOOH [4] | Solubility in water [5] |
| --- | --- | --- | --- | --- | --- | --- |
| CC1(C)CN[Se]c2sccc21 [BXT-51097, 4,4-Dimethyl-thieno-[3,2-e]-isoselenazine] | ≥ 85 | totally inhibited | totally inhibited | 39.8 nmoles of hydroperoxide reduced/min | 11.4 nmoles of hydroperoxide reduced/min | – |
| CC1(C)CN[Se](=O)c2sccc21 (stereo not drawn) [BXT-51100, 4,4-Dimethyl-thieno-[3,2-e]-isoselenazine-1-oxide] | – | – | – | 37.1 nmoles of hydroperoxide reduced/min | 10.1 nmoles of hydroperoxide reduced/min | – |
| CC1(C)CN[Se]c2ccsc21 [BXT-51103, 4,4-Dimethyl-thieno-[2,3-e]-isoselenazine] | ≥ 85 | totally inhibited | totally inhibited | 34.9 nmoles of hydroperoxide reduced/min | 15.5 nmoles of hydroperoxide reduced/min | – |
| CC1(C)CN[Se](=O)c2ccsc21 (stereo not drawn) [BXT-51105, 4,4-Dimethyl-thieno-[23-e]-isoselenazine-1-oxide] | – | – | – | 35.7 nmoles of hydroperoxide reduced/min | 13.9 nmoles of hydroperoxide reduced/min | – |
| O=c1c2ccccc2[se]n1-c1ccccc1 [ebselen, 2-phenyl-1,2-benzisoselenazolin-3-one] | – | – | – | – | – | very little soluble in water |
